Tested on: 5′ UTR of HCV mRNA
Test: Phage panning and phage Elisa on biotinylated RNA target
Format: binding
Conditions: phage clones; positive if A405 >2-fold over background
Method: Surrogate peptides were obtained by panning a portion of the 5′ UTR of HCV mRNA using both the 20 mer and 40 mer random libraries. All solutions and surfaces were pretreated with DEPC or RNaseZap (Ambion, Inc.), respectively, to eliminate RNase contamination that may compromise the integrity of the RNA. Biotinylated—RNA target was diluted to 1 mg/ml in binding buffer (PBS containing 1 mM MgCl2), denatured at 65° C. for 5 min and reannealed by slow cooling to room temperature to allow for appropriate refolding. The synthetic biotinylated-RNA target had the following sequence, 5′-biotin′AA UUGCCAGGACGACCGGGUCCUUUCUUGGAU CM CCC GCU CM UGC CUG GAG AUU-3′. Reannealed RNAs were stored in small aliquots (10-25 μl/tube) at −20° C. Microtiter wells were treated with RNaseZap (Ambion, Inc.) before use. One hundred microliters of RNA solution diluted to 2.5 ng/μl was added to an appropriate number of wells in a 96-well microtiter plate precoated with Streptavidin (Pierce) and incubated for 1 hr at room temperature. Unbound streptavidin was then blocked with 50 μl of 2 mM biotin at room temperature for 1 hr. Four wells were used for each round of panning and 100 μl phage was added to each well. Pahge were precipitated with RNase-free 6% PEG 8000+0.3 M NaCl, washed with the same solution once and resuspended in RNase-free PBS+1 mM MgCl2+Superasin (RNase inhibitor from Ambion, Inc.). For the first round, the input phage titer was 1×10^13 cfu/ml. For rounds 2 and 3, the input phage titer was approximately 10^11 cfu/ml. Phage were allowed to bind for two to three hours at room temperature. The wells were then quickly washed 13 times with 400 μl/well of PBS. Bound phage were eluted by incubation with 150 μl/well of 50 mM glycine-HCl, pH 2.2+0.1% BSA for 5 min. The resulting solution was then neutralized with Tris-HCl, pH 8.0. Log phase TG1 cells were infected with the eluted phage by incubation at 37° C. for 1 hr. Helper phage (M13KO7) was then added (multiplicity of infection(MOI)=15) and cells incubated in the presence of 50 μg/ml ampicillin and 2% glucose for 1 hr at 37° C. with shaking at 250 rpm. Following infection, cells were pelleted, resuspended in the initial culture volume of 2×YT containing 50 μg/ml ampicillin and 50 μg/ml Kanamycin and grown overnight at 37° C. with shaking at 225 rpm. Cells from the overnight culture were pelleted and supernatant containing phage was recovered. Phage was precipitated with 6% PEG 8000, 300 mM NaCl and chilled on ice for 1 hr. […]
For Elisa analysis of individual clones, colonies were picked and phage prepared as described above using helper phage, M13KO7. […] Plates were analyzed at 405 nm using a SpectraMax 340 plate reader (Molecular Devices) and SoftMax Pro software. […]

FTTPRHLSGRTVQMMRDSTS [HCV-3-C3]
Binding to HCV mRNA target: binders

LLVTGQFP--SQLLLGGAVCGP--STPRLRTGLCRLSGT (LLVTGQFPSQLLLGGAVCGPSTPRLRTGLCRLSGT) [HCV-3-F5]
Binding to HCV mRNA target: binders

RRTCGDPAAMLERLSCRAGDYRGASHTGRLLNLRGMHQYP [HCV-3-H8]
Binding to HCV mRNA target: binders

TSGESSGDRTRRVLTSSSARTILPN [HCV-NG-D9]
Binding to HCV mRNA target: binders
